{
  "source": "patent US11191811B2",
  "about": "“Osteocalcin as a treatment for frailty associated with aging” (THE TRUSTEES OF COLUMBIA UNIVERSITY IN THE CITY OF NEW YORK, priority 2014, dated 2021)",
  "key": {"[1]": {"test_system": "WT mice", "assay": "Endurance exercise on treadmill until exhaustion", "type": "in vivo, mouse", "details": "for muscle function / exercise capacity of young and old WT mice: 3 to 15 month-old WT mice", "description": "First, whether a single intraperitoneal injection of uncarboxylated mouse osteocalcin (osteocalcin) (100 ng/g of body weight) immediately before exercise would improve the exercise capacity of 3 month-old WT mice was tested.\nTo determine if osteocalcin has the same ability in older mice, 12 and 15 month-old mice that have low circulating osteocalcin levels were injected prior to running with 500 ng/g of body weight of osteocalcin in order to raise their circulating levels substantially. […] This was due to an increase in the phosphorylation of Akt, AMPK and HSL, as well as in glucose uptake, that occurred to a greater extent in oxidative muscles that express Gprc6a at the highest level, than in glycolytic muscles (FIG. 31C-F). Whether chronic delivery of osteocalcin through mini-pumps (90 ng/hour) for 28 days would increase muscle function in 9 month old mice that have the lowest circulating osteocalcin levels was also tested. […] This improved ability to perform exercise was caused in part by an increase in the expression in muscle of the fatty acid transporter Fatp1 and an activation of the Akt pathway (FIG. 31H-).\nFor exercise studies, all mice were trained before the tests to run on a treadmill (Harvard apparatus) for three days (10 minutes/day). The day of the test, mice were acclimated to the treadmill for 5 minutes followed by 10 minutes running at a constant speed of 17 cm/s, then a gradual increase in the speed up to 30 cm/s. Next, mice were run until exhaustion as defined by the number of times a mouse fell off to the electric grid during one minute (>15). Measurements of muscle strength were carried out using a grip strength meter (Columbus instruments). Values are expressed as the average of five single measurements, taken one minute apart from each other. For all biochemical and metabolic analyses performed, blood/tissues were collected and processed either at rest or at the end of a 40 min run (30 cm/s)."}, "[2]": {"test_system": "WT myotubes", "assay": "Gene expression (qPCR) in myotubes treated with Ocn", "type": "cell-based, mouse", "description": "FIG. 28. Osteocalcin signaling in myofibers favors uptake and oxidation of fatty acids. (A-B) Acylcarnitine levels in muscles and plasma of Gprc6af/f and Gprc6aMck−/− mice, at rest and after a single bout of exercise (n=4-6 per group). (C) OCR in myofibers cultured in KHR buffer containing 3 mM oleic acid. (D) ATP accumulations in muscles of Gprc6af/f and Gprc6aMck−/− mice after a single bout of exercise (n=6 per group). (E) Western blot analysis of HSL phosphorylation (Ser563) in muscles of Gprc6af/f and Gprc6aMck−/− mice after a single bout of exercise. (F-G) Cd36, Fatp1 and Cpt1b expression in WT and Gprc6a−/− myotubes or WT myotubes treated with Ocn (10 ng/ml). (H) Fatp1 expression in muscles of Gprc6af/f; Gprc6aMck−/− and Ocn+/−; Gprc6aMck+/− mice, at rest and after a single bout of exercise (n=4-6 per group). (I) Western blot analysis of FATP1 in muscle of Gprc6af/f and Gprc6aMck−/− mice after exercise. (J) Cd36, Fatp1 and Cpt1b expression in muscles of Creb f/f and CrebMck−/− mice after a single bout of exercise. (K) Western blot analysis of CREB phosphorylation (Ser133) in muscles of Gprc6af/f and Gprc6aMck−/− mice after a single bout of exercise. (L) Performance during endurance exercise of 3 month-old Gprc6aMck+/−; CrebMck+/−, CrebMck+/− and control mice (n=8-13 per group).\nSerum osteocalcin, PINP, CTX, and insulin levels were measured using ELISA assays. Blood glucose level was measured using an Accu-Check glucometer. Urine 3-MHT was measured as previously described (Aranibar et al., 2011, Anal. Biochem. 410:84-91). Determination of cAMP accumulation was performed using a commercial kit (R&D). For gene expression, 1 μg of total RNA was reverse transcribed into cDNA. qPCR analyses were performed using a SYBER green master mix (Applied Biosciences) and a CFX-Connect real time PCR (Bio-Rad). Relative expression levels of each gene were normalized to that of Hprt or Gapdh. For in situ hybridization, muscle was frozen in liquid N2-cooled methylbutane. Samples were sectioned at 10 μm using a cryostat. […]"}, "[3]": {"test_system": "wild-type mice", "assay": "Allergen-triggered asthma-like condition, osteocalcin delivery", "type": "in vivo, mouse", "description": "The level of acetylcholine, a neurotransmitter that causes bronchoconstriction, is increased in the lungs but not in the brains of Osteocalcin^−/− and Gprc6a^−/− mice.\nWhen metacholine is administered to the lungs of mice, the lung airways constrict. […] Wild-type mice were treated with an inflammation-increasing agent and developed asthma that included bronchoconstriction and signs of inflammation."}, "[4]": {"assay": "Osteocalcin in blood of ICV-infused Osteocalcin−/− mice", "type": "in vivo, mouse", "details": "ICV infusion 10 ng/hour", "description": "For osteocalcin delivery to pregnant mice, IP injections (240 ng/day) were performed as soon as a plug was present daily until delivery (E0.5-E18.5). For osteocalcin or leptin infusion in adult Osteocalcin^−/− or ob/ob mice, pumps (Alzet micro-osmotic pump, Model 1002) delivering osteocalcin (300 ng/hr), leptin (50 ng/hr), or vehicle were surgically installed subcutaneously in the backs of 3-month old mice. For the postnatal rescue of cognitive functions in Osteocalcin^−/− mice, osteocalcin (10 ng/hour) or vehicle were delivered intrasubventricularly (icv) as previously described (Ducy et al., 2000, Cell 100:197-207). Leptin and osteocalcin content in sera and tissues were determined by ELISA.\nThe pharmacological relevance of this ability of osteocalcin to signal in neurons was established by delivering uncarboxylated osteocalcin through intracerebro-ventricular (ICV) infusions (10 ng/hour) in WT and Osteocalcin^−/− mice. The localization of the cannula was verified by administering methylene blue through these pumps. […] This week-long treatment with uncarboxylated osteocalcin corrected the anxiety and depression features noted in Osteocalcin^−/− mice (FIG. 12A-E). Collectively, the results described herein indicate that osteocalcin alleviates anxiety and depression in the mouse by acting directly in the brain."}, "[5]": {"details": "delivery by nebulization (two weeks)"}},
  "note": "Entries after “also recorded” stand apart in the source; their conditions may differ.",
  "data": [
    {"substance": "uncarboxylated osteocalcin: Recombinant uncarboxylated mouse osteocalcin, bacterially produced, purified on glutathione beads and cleaved from the GST subunit by thrombin (YLGASVPSPDPLEPTREQCELNPACDELSDQYGLKTAYKRIYGITI)", "values": [
      {"measurement": "increase of time and distance run on the treadmill before exhaustion", "setting": "[1]; 3 month-old WT mice, single intraperitoneal injection 100 ng/g of body weight immediately before exercise", "value": "over 20%"},
      {"measurement": "muscle function / exercise capacity of young and old WT mice", "setting": "[1]; listed as Osteocalcin", "value": "increases"},
      {"measurement": "muscle function / exercise capacity of young and old WT mice", "setting": "[1]; listed as osteocalcin", "value": "can improve"},
      {"measurement": "time and distance run / exercise capacity of older mice", "setting": "[1]; 12 and 15 month-old mice, 500 ng/g of body weight injected prior to running", "value": "the exercise capacity of 3 month-old mice; also recorded: the same time and distance as 3 month-old untreated mice; also recorded: run like young mice"},
      {"measurement": "time and distance run on the treadmill before exhaustion", "setting": "[1]; mini-pumps 90 ng/hour for 28 days, 9 month old mice", "value": "significant increase"},
      {"measurement": "increase of distance run", "setting": "[1]; wild-type mice, simple injection while they run on a treadmill", "value": 20, "unit": "%"},
      {"measurement": "exercise capacity of young mice", "setting": "[1]; young (3 month-old) WT mice, exogenous osteocalcin", "value": "increases; also recorded: sufficient to increase"},
      {"measurement": "expression of Il6", "setting": "[2]", "value": "increased"},
      {"measurement": "expression of Cpt1b", "setting": "[2]; Ocn 10 ng/ml", "value": "increased"},
      {"measurement": "expression of Fatp1", "setting": "[2]; Ocn 10 ng/ml", "value": "increased"},
      {"measurement": "bronchoconstriction", "setting": "[3]; [5]", "value": "completely rescued"},
      {"measurement": "local inflammation / inflammatory signs", "setting": "[3]; [5]", "value": "without affecting; also recorded: still observed"},
      {"measurement": "bronchoconstriction", "setting": "[3]; osteocalcin delivered to the brains", "value": "did not show a similar effect"},
      {"measurement": "leakage of the centrally delivered hormone into the general circulation", "setting": "[4]", "value": "no leakage"}
    ]}
  ]
}
